Key:
[1] = tested on: NCI-H460; assay: Compound was tested for growth inhibition of human non-small cell lung cancer NCI-H460 cell line; type: functional
[2] = Compound was tested for inhibition of tubulin polymerisation
[3] = tested on: A549; assay: Inhibition of human non-small cell lung cancer A549 cell proliferation; type: functional
[4] = tested on: HCT-116; assay: Compound was tested for growth inhibition of human colon carcinoma HCT116 cell line; type: functional
[5] = tested on: MCF7; assay: Compound was tested for growth inhibition of MCF-7 cell line (non multidrug resistant); type: functional; settings: Homo sapiens
[6] = tested on: NCI-H226; assay: Compound was tested for growth inhibition of multidrug resistant tumor NCI-H226 cell line; type: functional; settings: Homo sapiens
[7] = tested on: A498; assay: Compound was tested for growth inhibition of multidrug resistant tumor A498 cell line; type: functional; settings: Homo sapiens
[8] = tested on: HCT-15; assay: Compound was tested for growth inhibition of multidrug resistant tumor HCT-15 cell line; type: functional; settings: Homo sapiens
[9] = tested on: NCI/ADR-RES; assay: Compound was tested for growth inhibition of multidrug resistant tumor MCF-7/ADR cell line; type: functional; settings: Homo sapiens
[10] = Compound was tested for inhibition of tubulin polymerisation at 1 uM

O=C(c1ccncc1)N1CCc2cc(S(=O)(=O)N3C[C@H](c4ccccc4)NC3=O)ccc21
GI50 [1]: 90 nM
IC50 [2]: 10300 nM
GI50 [3]: 130 nM
GI50 [4]: 80 nM

CCOC(=O)Nc1ccc(S(=O)(=O)N2C[C@H](c3ccccc3)NC2=O)cc1C
GI50 [1]: 70 nM
IC50 [2]: 6000 nM
GI50 [5]: 150 nM
GI50 [6]: 450 nM
GI50 [3]: 40 nM
GI50 [7]: 130 nM
GI50 [8]: 100 nM
GI50 [4]: 70 nM
GI50 [9]: 150 nM

O=C(CNc1ccccc1)N1CCc2cc(S(=O)(=O)N3C[C@H](c4ccccc4)NC3=O)ccc21
GI50 [1]: 150 nM
IC50 [2]: 3500 nM
GI50 [5]: 150 nM
GI50 [6]: 150 nM
GI50 [3]: 80 nM
GI50 [7]: 150 nM
GI50 [8]: 100 nM
GI50 [4]: 50 nM
GI50 [9]: 180 nM

CN1CCN(CCOC(=O)N2CCc3cc(S(=O)(=O)N4C[C@H](c5ccccc5)NC4=O)ccc32)CC1
GI50 [1]: 900 nM
IC50 [2]: 30000 nM
GI50 [3]: 1000 nM
GI50 [4]: 1000 nM

Nc1ccc(C(=O)Nc2ccc(S(=O)(=O)N3C[C@H](c4ccccc4)NC3=O)cc2Cl)cc1
GI50 [1]: 60 nM
IC50 [2]: 5500 nM
GI50 [3]: 60 nM
GI50 [4]: 60 nM

CC(=O)O[C@H]1C(=O)[C@@]2(C)[C@H]([C@H](OC(=O)c3ccccc3)[C@]3(O)C[C@H](OC(=O)[C@H](O)[C@@H](NC(=O)c4ccccc4)c4ccccc4)C(C)=C1C3(C)C)[C@]1(OC(C)=O)CO[C@@H]1C[C@@H]2O [PACLITAXEL]
GI50 [1]: 7 nM
GI50 [5]: 10 nM
GI50 [6]: 20000 nM
GI50 [3]: 10 nM
GI50 [7]: 3500 nM
GI50 [8]: 300 nM
GI50 [4]: < 1 nM
GI50 [9]: 8000 nM

O=C(c1ccc([N+](=O)[O-])o1)N1CCc2cc(S(=O)(=O)N3C[C@H](c4ccccc4)NC3=O)ccc21
GI50 [1]: 950 nM
IC50 [2]: 40000 nM
GI50 [3]: 950 nM
GI50 [4]: 270 nM

O=C(Cc1cccs1)N1CCc2cc(S(=O)(=O)N3C[C@H](c4ccccc4)NC3=O)ccc21
inhibition [10]: 82%
GI50 [1]: 7 nM
IC50 [2]: < 1000 nM
GI50 [3]: 7 nM
GI50 [4]: 6 nM

O=C(c1ccco1)N1CCc2cc(S(=O)(=O)N3CC(c4cccs4)NC3=O)ccc21 (centres undefined)
GI50 [1]: 60 nM
IC50 [2]: 4000 nM
GI50 [3]: 60 nM
GI50 [4]: 70 nM

Nc1ccc(C(=O)N2CCc3cc(S(=O)(=O)N4CC(c5ccc(F)cc5)NC4=O)ccc32)cc1 (centres undefined)
GI50 [1]: 900 nM
GI50 [3]: 1200 nM
GI50 [4]: 1100 nM

O=C(NCCN1CCOCC1)N1CCc2cc(S(=O)(=O)N3C[C@H](c4ccccc4)NC3=O)ccc21
GI50 [1]: 1000 nM
GI50 [3]: 2800 nM
GI50 [4]: 1200 nM

CCOC(=O)N1CCc2cc(S(=O)(=O)N3C[C@H](c4ccccc4)NC3=O)ccc21
GI50 [1]: 80 nM
IC50 [2]: 1500 nM
GI50 [3]: 80 nM
GI50 [4]: 80 nM

O=C(NC1CCCCC1)N1CCc2cc(S(=O)(=O)N3C[C@H](c4ccccc4)NC3=O)ccc21
GI50 [1]: 80 nM
IC50 [2]: 2000 nM
GI50 [5]: 150 nM
GI50 [6]: 150 nM
GI50 [3]: 60 nM
GI50 [7]: 700 nM
GI50 [8]: 120 nM
GI50 [4]: 50 nM
GI50 [9]: 1300 nM

O=C(c1cccs1)N1CCc2cc(S(=O)(=O)N3C[C@H](c4ccccc4)NC3=O)ccc21
GI50 [1]: 20 nM
IC50 [2]: 1600 nM
GI50 [3]: 20 nM
GI50 [4]: 10 nM

Nc1ccc(C(=O)N2CCc3cc(S(=O)(=O)N4C[C@H](c5ccccc5)NC4=O)ccc32)cc1
GI50 [1]: 20 nM
IC50 [2]: 1500 nM
GI50 [5]: 10 nM
GI50 [6]: 100 nM
GI50 [3]: 20 nM
GI50 [7]: 1200 nM
GI50 [8]: 120 nM
GI50 [4]: 10 nM
GI50 [9]: 2000 nM

O=C(c1cc(Cl)nc(Cl)c1)N1CCc2cc(S(=O)(=O)N3C[C@H](c4ccccc4)NC3=O)ccc21
GI50 [1]: 700 nM
IC50 [2]: 22000 nM
GI50 [3]: 380 nM
GI50 [4]: 380 nM

CC[C@]1(O)C[C@H]2CN(CCc3c([nH]c4ccccc34)[C@@](C(=O)OC)(c3cc4c(cc3OC)N(C=O)[C@H]3[C@@](O)(C(=O)OC)[C@H](OC(C)=O)[C@]5(CC)C=CCN6CC[C@]43[C@@H]65)C2)C1 [VINCRISTINE]
GI50 [1]: 3 nM
GI50 [3]: 20 nM
GI50 [4]: 1 nM

Nc1ccc(C(=O)N2CCc3cc(S(=O)(=O)N4CC(c5cccs5)NC4=O)ccc32)cc1 (centres undefined)
GI50 [1]: 250 nM
IC50 [2]: 10500 nM
GI50 [3]: 180 nM
GI50 [4]: 300 nM

— ChEMBL document CHEMBL1138726, “Novel diarylsulfonylurea derivatives as potent antimitotic agents” (Bioorg Med Chem Lett, 2004)
